Earlier results, collected in patent US6410601B1, “Histochrome and its therapeutic use in acute myocardial infarction and ischemic heart disease” (priority 1998, dated 2002).

Tested on: patients with acute myocardial infarction
Settings: 10 mg/kg intravenously before thrombolytic reperfusion

## CCc1nc(C)ccc1O [Emoxipin]
26 patients, control group 39.2%
  reduction of the size of the asynergic zone in the myocardium: 59.5%
Control 28.1%
  frequency of myocardial arrhythmias: 13.9%
Monotherapy 309%
  lipid peroxidation in terms of malonic dialdehyde concentration: 60%
